Measurements taken from the NIST ThermoML archive (doi:10.1016/j.jct.2014.06.005).

Assays:
[1] = Ring tensiometer
[2] = xn = mol fraction of the nth substance listed; conditions: Ring tensiometer

CC(C)(C)O [2-methylpropan-2-ol]
[1]
Conditions	surface tension liquid-gas [mN/m]
298.15 K	19.96
308.15 K	19.26
318.15 K	18.35
328.15 K	17.62

CC(C)(C)O [2-methylpropan-2-ol] + C[S+](C)[O-]
surface tension liquid-gas [mN/m], [2]
Conditions	298.15 K	308.15 K	318.15 K	328.15 K
x1 = 0.0183	39.25	38.29	37.56	36.51
x1 = 0.0361	36.85	36.01	35.32	34.28
x1 = 0.0695	34.2	33.39	32.73	31.66
x1 = 0.1008	32.36	31.54	30.78	29.89
x1 = 0.1301	31.04	30.17	29.53	28.54
x1 = 0.1832	29.19	28.35	27.71	26.83
x1 = 0.2302	28.08	27.23	26.53	25.71
x1 = 0.3096	26.31	25.51	24.96	24.17
x1 = 0.4022	24.98	24.21	23.69	22.86
x1 = 0.4928	23.72	23.02	22.37	21.63
x1 = 0.5736	22.87	22.01	21.36	20.63
x1 = 0.6322	22.19	21.4	20.85	20.06
x1 = 0.6767	21.72	21.02	20.47	19.71
x1 = 0.7115	21.51	20.85	20.18	19.38
x1 = 0.8511	20.64	19.92	19.03	18.26
x1 = 1	19.96	19.26	18.35	17.62

CC(C)CCO [3-methylbutan-1-ol]
[1]
Conditions	surface tension liquid-gas [mN/m]
298.15 K	22.83
308.15 K	22.02
318.15 K	21.3
328.15 K	20.49

CC(C)CCO [3-methylbutan-1-ol] + C[S+](C)[O-]
surface tension liquid-gas [mN/m], [2]
Conditions	298.15 K	308.15 K	318.15 K	328.15 K
x1 = 0.0033	41.6	40.66	39.65	38.38
x1 = 0.0065	40.98	40.12	39.19	37.83
x1 = 0.0129	40.07	39.09	38.42	37.08
x1 = 0.0255	38.5	37.78	37.05	35.84
x1 = 0.0377	37.32	36.8	35.85	34.87
x1 = 0.0783	34.25	33.78	32.99	32.37
x1 = 0.1307	31.96	31.49	30.9	30.18
x1 = 0.1774	30.51	30	29.39	28.79
x1 = 0.2572	28.72	28.06	27.39	26.8
x1 = 0.323	27.65	27.06	26.37	25.6
x1 = 0.378	26.87	26.28	25.59	24.91
x1 = 0.4456	26	25.48	24.78	23.98
x1 = 0.4999	25.54	24.81	24.06	23.39
x1 = 0.5578	25	24.23	23.51	22.81
x1 = 0.6036	24.54	23.78	22.99	22.19
x1 = 0.6491	24.14	23.36	22.7	21.82
x1 = 0.6851	23.81	23.11	22.46	21.51
x1 = 0.786	23.42	22.69	22.01	21.16
x1 = 0.8875	23.16	22.41	21.64	20.89
x1 = 0.9511	22.95	22.2	21.46	20.68
x1 = 1	22.83	22.02	21.3	20.49

C[S+](C)[O-] [dimethyl sulfoxide]
[1]
Conditions	surface tension liquid-gas [mN/m]
298.15 K	42.28
308.15 K	41.18
318.15 K	40.14
328.15 K	38.93

C[S+](C)[O-] [dimethyl sulfoxide] + CC(C)(C)O
[2], x2 = 0
Conditions	surface tension liquid-gas [mN/m]
298.15 K	42.28
308.15 K	41.18
318.15 K	40.14
328.15 K	38.93

C[S+](C)[O-] [dimethyl sulfoxide] + CC(C)CCO
[2], x2 = 0
Conditions	surface tension liquid-gas [mN/m]
298.15 K	42.28
308.15 K	41.18
318.15 K	40.14
328.15 K	38.93
